According to paper PMC4102782, “Dual Aurora A and JAK2 kinase blockade effectively suppresses malignant transformation” (Oncotarget, 2014):
Like-named read-outs stand apart in the source and are kept apart here.

What was measured:
FLT3 = tested on: FLT3; parameters: method as in PMID 15126317; details: cited from earlier work
MDA-MB-468 cells [1] = experiment: Anchorage-dependent proliferation, MTT assay, MDA-MB-468; assay type: cell-based; details: Homo sapiens, 48 h
Description: (§1) Cells were cultured in 96 well plates at a density of 2,000 cells/ well. The cells with siRNA transfection or with the inhibitor treatment were monitored for viability using MTT at indicated time points. At the given time points, MTT reagent was added to the media and allowed to incubate for 3 h at 37° C in a humidified incubator at 5% CO2. The medium was then removed and MTT crystals were dissolved in DMSO (Sigma). Cell viability was quantified by reading the plates at an absorbance of 540 nm on a μQuant microplate reader using KC4 data analysis software (Bio-Tek Instruments). The 540 nm absorbance of vehicle-treated wells was used to define 100% proliferation. Each condition was performed in replicates of six wells.

HT29 cells = experiment: Anchorage-dependent proliferation, MTT assay, HT29; assay type: cell-based; details: Homo sapiens, HT-29, 48 h
Description: as §1

MDA-MB-468 cells [2] = experiment: Soft agar anchorage-independent growth, MDA-MB-468; assay type: cell-based, human; details: MDA-MB-468, Ruxolitinib 30 μM
Description: For analysis of anchorage-independent growth, log-phase growing cells were trypsinized, and triplicates of 1.5 × 10^3 cells per well were seeded in regular growth medium containing 0.3% agar (Sigma) and drug added at the indicated concentrations, as previously described. The cells were allowed to incubate at 37° C for 3 weeks and fed once per week with the inhibitor before 1 mg/ml MTT (Sigma) solution was added overnight to facilitate colony counting. Colonies were scored and counted according to size, as previously described.

HT-29 cells [3] = experiment: Soft agar anchorage-independent growth, HT-29; assay type: cell-based, human; details: HT-29, Ruxolitinib 20 μM
Description: The cells were allowed to incubate at 37° C for 3 weeks and fed once per week with the inhibitor before 1 mg/ml MTT (Sigma) solution was added overnight to facilitate colony counting. Colonies were scored and counted according to size, as previously described.

MDA-MB-468 cells [4] = experiment: Matrigel Transwell invasion, MDA-MB-468; assay type: cell-based, human; details: MDA-MB-468, Ruxolitinib 30 μM
Description: Cells were transfected with Aurora A and JAK2 for 48 h or with siRNA for 72 h or treated with the compounds for 24 h and then were trypsinized and resuspended in serum-free medium and placed in the upper chamber of the Matrigel-coated (0.8 μg/μL, BD Biosciences, San Diego, CA) Transwell insert (from 2 to 5 × 10^4 cells/well) and with 0.5% DMSO or the compounds at the indicated dose. Medium containing 10%FBS was placed in the lower chamber. […] Invading cells in the membrane were fixed with 100% methanol and stained with fresh prepared 0.2% crystal violet. Noninvasive cells in the upper chamber were removed by wiping the upper side of the membrane with a cotton swab, and cells located on the underside of the filter were observed and photographed under Olympus stereo microscope. The number of invading cells was counted using Image-Pro analysis software.

HT-29 cells [5] = experiment: Matrigel Transwell invasion, HT-29; assay type: cell-based, human; details: HT-29, Ruxolitinib 40 μM
Excerpt: Medium containing 10%FBS was placed in the lower chamber. […] Invading cells in the membrane were fixed with 100% methanol and stained with fresh prepared 0.2% crystal violet. Noninvasive cells in the upper chamber were removed by wiping the upper side of the membrane with a cotton swab, and cells located on the underside of the filter were observed and photographed under Olympus stereo microscope. The number of invading cells was counted using Image-Pro analysis software.

[6] = tested on: Aurora A auto-phosphorylation (Thr-288); experiment: Western blot, Aurora A auto-phosphorylation in nocodazole-synchronized MDA-MB-468 cells; assay type: cell-based, human; details: MDA-MB-468, nocodazole-synchronized, 2 h
Description: (§2) Cells were plated in 6 cm dishes at a density of 2 × 10^5 cells/dish. Aurora A activity was determined by measuring autophosphorylation of Aurora A on Thr288 in cells that were synchronized by treatment with nocodazole (100 ng/mL) for 20 h prior to the treatment with Aurora inhibitors, whereas Aurora B activity was determined by measuring phosphorylation of histone H3 on Ser-10 (p-HH3). […] Cells were harvested after 2 h of treatment and processed for SDS−PAGE and Western blotting.
(§3) Cells were harvested from experiments of ectopic expression or knockdown using siRNA or the treatment with the inhibitors, washed, and then lysed using lysis buffer as previously described. The protein concentration of the lysate was measured, and the lysate was mixed with gel electrophoresis loading buffer, boiled for 5 minutes, separated by SDS-PAGE, and transferred to nitrocellulose membranes.

[7] = tested on: P-Histone H3 (Ser-10), Aurora B substrate; experiment: Western blot, phosphorylation of Histone H3 in MDA-MB-468 cells; assay type: cell-based, human
Description: as §2, §3

[8] = tested on: P-STAT3 (Y705), JAK2 substrate; experiment: Western blot, phosphorylation of STAT3 in MDA-MB-468 cells; assay type: cell-based, human
Description: as §2, §3

P-Histone H3 = experiment: Western blot, phosphorylation of Histone H3 in HT-29 cells; assay type: cell-based, human; details: HT-29, Ruxolitinib 20 μM
Description: as §2, §3

P-STAT3 = experiment: Western blot, phosphorylation of STAT3 in HT-29 cells; assay type: cell-based, human; details: HT-29, Ruxolitinib 20 μM
Description: as §2, §3

[9] = tested on: PARP cleavage and Caspase 3 activation in MDA-MB-468 cells; experiment: Apoptosis by Western blot of PARP cleavage and Caspase 3 activation, MDA-MB-468; assay type: cell-based, human; details: MDA-MB-468, single agent, low concentration, e.g. Ruxolitinib 0.4 μM
Description: Cells were harvested from experiments of ectopic expression or knockdown using siRNA or the treatment with the inhibitors, washed, and then lysed using lysis buffer as previously described. The protein concentration of the lysate was measured, and the lysate was mixed with gel electrophoresis loading buffer, boiled for 5 minutes, separated by SDS-PAGE, and transferred to nitrocellulose membranes. […] To evaluate the effect of inhibitors on cell cycle progression, cells were treated with inhibitors at indicated dose or DMSO control and then harvested, fixed with 70% ethanol pretreated with RNase, and stained with propidium iodide (PI) (Sigma) as previously described for flow cytometry analysis. For the detection of apoptosis, cells were cultured for 24 h in medium with inhibitors at indicated dose or DMSO control and harvested for SDS-PAGE and Western blotting. The siRNA or drug treatment-induced apoptosis was detected by Western blot analysis of the cleavage of PARP and caspase-3.

MDA-MB-468 cells [10] = experiment: Cell-cycle analysis by flow cytometry, MDA-MB-468; assay type: cell-based, human; details: MDA-MB-468, same conditions, data not shown
Description: To evaluate the effect of inhibitors on cell cycle progression, cells were treated with inhibitors at indicated dose or DMSO control and then harvested, fixed with 70% ethanol pretreated with RNase, and stained with propidium iodide (PI) (Sigma) as previously described for flow cytometry analysis. For the detection of apoptosis, cells were cultured for 24 h in medium with inhibitors at indicated dose or DMSO control and harvested for SDS−PAGE and Western blotting. The siRNA or drug treatment-induced apoptosis was detected by Western blot analysis of the cleavage of PARP and caspase-3.

## N#CC[C@H](C1CCCC1)n1cc(-c2ncnc3[nH]ccc23)cn1 [Ruxolitinib]
MDA-MB-468 cells [1]; MDA-MB-468, MTT
  IC50: 26 µM
MDA-MB-468 cells [1]; MDA-MB-468, Ruxolitinib 35 μM
  inhibition at 35 µM: 51.2%
HT29 cells; HT29, MTT
  IC50: 44.7 µM
HT29 cells; HT29, Ruxolitinib 20 μM
  inhibition at 20 µM: 14.3%
MDA-MB-468 cells [2]; Homo sapiens
  inhibition at 30 µM: 23.7%
MDA-MB-468 cells [2]; vehicle 131
  soft agar colonies: 100 colonies
HT-29 cells [3]; vehicle 129
  soft agar colonies: 72 colonies
HT-29 cells [3]; Homo sapiens, read-out: inhibition of soft agar colonies
  inhibition at 20 µM: 44.2%
MDA-MB-468 cells [4]; Homo sapiens
  inhibition at 30 µM: 48.6%
MDA-MB-468 cells [4]; vehicle 344
  invaded cells: 177 cells
HT-29 cells [5]; vehicle 1066
  invaded cells: 305 cells
HT-29 cells [5]; Homo sapiens
  inhibition at 40 µM: 71.4%
[6]
  effect on auto-phosphorylation of Aurora A: not that of Histone H3 or the auto-phosphorylation of Aurora A
[7]; MDA-MB-468, Ruxolitinib 30 μM
  effect on P-Histone H3: not P-Histone H3
[7]; MDA-MB-468, increasing concentrations, 2 h
  effect on phosphorylation of Histone H3 (Ser-10): not that of Histone H3
[8]
  effect on P-STAT3: inhibited P-STAT3
  effect on phosphorylation of STAT3 (Y705): able to inhibit the phosphorylation of STAT3
P-Histone H3
  effect on P-Histone H3: not P-Histone H3
P-STAT3
  effect on P-STAT3: inhibited P-STAT3
[9]
  PARP cleavage: neither Alisertib nor Ruxolitinib induced PARP cleavage

## Cc1cc(Nc2cc(N3CCN(C)CC3)nc(Sc3ccc(NC(=O)C4CC4)cc3)n2)[nH]n1 [VX-680, Tozasertib]
[6]
  effect on auto-phosphorylation of Aurora A: highly effective at inhibiting
[7]
  effect on phosphorylation of Histone H3 (Ser-10): highly effective at inhibiting
MDA-MB-468 cells [10]
  G2/M accumulation: induced a significant G2/M accumulation
